Experimental data published in patent US20240009266A1, “PHARMACEUTICAL COMBINATIONS COMPRISING A PEPTIDE CXCR4 INHIBITOR AND A TAXANE FOR TREATING CANCER” (POLYPHOR AG, priority 2020, published 2024).

Key:
[1] = system: breast cancer PDX Ma15169; conditions: for tumor growth inhibition / therapeutic effect (in words): Ma15169 PDX, humanized NOG-EXL mice, treatment day 154-182; for T/C value (treated-to-control tumor volume) at the last day of the study: day 183, Paclitaxel 10 mg/kg i.v. twice weekly, treatment from day 154, 29 days; for response rating according to RECIST criteria: from T/C at day 183 (last day of the study)
Experimental: The study was designed to determine the response of the breast cancer PDX Ma15169 to treatment with Paclitaxel single agent, Balixafortide single agent and the combination of both in humanized NOG-EXL mice. Humanized NOG-EXL mice bearing the breast cancer PDX Ma15169 were treated with Paclitaxel and Balixafortide according to Table 1. Ma15169 is a patient derived xenograft (PDX) that was from a patient with an invasive ductal carcinoma (ypT1a ypN1a R0 G3 L1 V1). The patient tumour was ER/PR as well as Her-2 negative. The tumour material was expanded in 9 donor mice (NOG, Taconic; https://www.taconic.com/mouse-model/ciea-nog-mouse) and fragments of about 10 mm3 were each implanted subcutaneously into the flank of 50 humanized NOG-EXL mice; at this time, the passage number of Ma15169 was #4.
Female NOG-EXL mice with an age of about 4 weeks were used for the constitution of human immune cells. 24 hours before CD34+ cell inoculation mice were irradiated with 1Gy. Human CD34+ cells were isolated from fresh cord blood within the laboratories of EPO (Experimental Pharmacology & Oncology Berlin-Buch GmbH, Berlin-Buch, Germany) and preserved in liquid nitrogen until use. For the study MV16883 a pool of 5 different donors (CB AG 101, CB AG 97, CB KR 104, CB AG 106, CB AG 107) prepared. After thawing the cells were washed with PBS, pooled and washed again followed by Trypan blue staining and cell counting using Neubauer chamber. A total of 5×10^4 vital cells were resuspended in 200 μl PBS and injected intravenously into the tail vain of all mice.
Determination of human immune cells by FACS was performed at days 46, 84 and 115 after cell inoculation (leucocytes CD45+, B cells CD19+, T cells CD3+, NK cells CD56+/CD16+ and monocytes CD14+; Human Immunophenotyping 8-color-Kit (Miltenyi)). The mice were weighed weekly and monitored for general health two times weekly.
The PDX Ma15169 is maintained by EPO (Experimental Pharmacology & Oncology Berlin-Buch GmbH, Berlin-Buch, Germany) as in vivo passage; the passage number for this study was #4. Donor mice (female NOG; Taconic) with tumors of about 1 cm3 were used for the preparation of this study MV16883.
After removal of the tumor tissue from donor mice, the tumors were cut into fragments (2-3 mm diameter—approximately 10 mm3) and placed in cooled RPMI 1640 culture medium until s.c. implantation within 30 minutes. The humanized NOG-EXL mice were anaesthetized with Etomidate and received a small incision in the skin of the left flank. The tumor fragments (one fragment/mouse) were implanted with tweezers and the incision closed with a suture clip (#310417, Covetrus GmbH). The clips were removed after seven days and mice controlled two times weekly by means of palpation. The implantation of tumor fragments was performed 122 days after the inoculation of CD34+ cells.
Tumor bearing mice were stratified into 4 treatment groups according to their tumor volumes at day 154 post CD34+ cell inoculation (32 days after tumor implantation). […] During stratification the animals were individually marked by earmarks.
Paclitaxel (Taxomedac™ comprising paclictaxel, citric acid, ethanol and PEG (30-50) castor oil) was given i.v. at a dose of 10 mg/kg twice weekly. Balixafortide was given s.c. at a dose of 20 mg/kg once daily for the first 5 days and twice daily for 5 days followed by treatment breaks of 2 days until the end of treatment period (FIG. 1). Total treatment duration was 29 days. Successful engraftment of human CD34+ cells was checked by flow cytometry (FACS).
Changes in the human immune cell population in blood were followed-up at the end of the study by FACS analysis.

[2] = molecular target: human CXCR4 receptor (Homo sapiens, UniProt P61073); assay: In vitro receptor binding studies, human CXCR4 receptor
human CXCR4 receptor, sequence (P61073 whole entry): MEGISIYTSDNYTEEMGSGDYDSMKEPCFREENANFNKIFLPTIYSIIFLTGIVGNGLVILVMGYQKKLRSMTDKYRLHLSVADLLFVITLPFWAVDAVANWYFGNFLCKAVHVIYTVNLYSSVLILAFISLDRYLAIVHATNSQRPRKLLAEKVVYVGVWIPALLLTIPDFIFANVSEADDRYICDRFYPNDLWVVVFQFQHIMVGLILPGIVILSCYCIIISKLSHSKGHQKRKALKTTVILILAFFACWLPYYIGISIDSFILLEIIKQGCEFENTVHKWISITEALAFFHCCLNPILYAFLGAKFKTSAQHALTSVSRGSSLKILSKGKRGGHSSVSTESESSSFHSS

[3] = system: other potential target receptors; assay: In vitro receptor binding studies, other receptors

CC(=O)O[C@H]1C(=O)[C@@]2(C)[C@H]([C@H](OC(=O)c3ccccc3)[C@]3(O)C[C@H](OC(=O)[C@H](O)[C@@H](NC(=O)c4ccccc4)c4ccccc4)C(C)=C1C3(C)C)[C@]1(OC(C)=O)CO[C@@H]1C[C@@H]2O [Paclitaxel, reference compound]
tumor growth inhibition / therapeutic effect (in words) [1]: significant tumor growth inhibition
T/C value (treated-to-control tumor volume) at the last day of the study ([1]; Balixafortide 20 mg/kg s.c.): 42%
response rating according to RECIST criteria [1]: stable disease

Cyclo(-Tyr-His-Ala-Cys-Ser-Ala-^DPro-Dab-Arg-Tyr-Cys-Tyr-Gln-Lys-^DPro-Pro-) having a disulfide bond between Cys^4 and Cys^11 [Balixafortide]
tumor growth inhibition / therapeutic effect (in words) [1]: inhibited tumor growth marginally
T/C value (treated-to-control tumor volume) at the last day of the study ([1]; Balixafortide 20 mg/kg s.c.): 107%
optimum T/C value ([1]; found at day 168, Balixafortide 20 mg/kg s.c., p>0.05): 79%
response rating according to RECIST criteria [1]: progressive disease
affinity for the human CXCR4 receptor (in words) [2]: significant affinity
binding to other potential target receptors (in words) [3]: general lack of significant binding
